According to patent US9676714B2, “Sulfonylindole derivatives and method for preparing the same” (Daewoong Pharmaceutical Co., Ltd., priority 2013, dated 2017):
Structures can show the parent of a compound that is named as a salt.

target: T1, proton pump (H+/K+-ATPase) (Sus scrofa, UniProt P19156); assay: Measurement of inhibitory effects on proton pump (H+/K+-ATPase) activities; format: biochemical; conditions: hog gastric vesicles, K+-specific H+/K+-ATPase activity, Tris-HCl buffer pH 7.4, 37° C. for 40 minutes, malachite green Pi readout
T1 construct: Gastric vesicles were prepared from hog stomach via centrifugal separation; from tissue; host or cells: hog stomach (gastric vesicles, method of Rabon et al. 1988)
Method in brief: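 Hog gastric vesicles in 60 mmol/l Tris-HCl pH 7.4 with 0.5% DMSO were treated with compounds at room temperature; reaction was started with 10 μl of 10 mmol/l ATP stock. Released Pi was read at 570 nm, K+-specific activity taken as the ±K+ difference. IC50 from 4-parameter logistic fit.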

T1 sequence (P19156 whole entry): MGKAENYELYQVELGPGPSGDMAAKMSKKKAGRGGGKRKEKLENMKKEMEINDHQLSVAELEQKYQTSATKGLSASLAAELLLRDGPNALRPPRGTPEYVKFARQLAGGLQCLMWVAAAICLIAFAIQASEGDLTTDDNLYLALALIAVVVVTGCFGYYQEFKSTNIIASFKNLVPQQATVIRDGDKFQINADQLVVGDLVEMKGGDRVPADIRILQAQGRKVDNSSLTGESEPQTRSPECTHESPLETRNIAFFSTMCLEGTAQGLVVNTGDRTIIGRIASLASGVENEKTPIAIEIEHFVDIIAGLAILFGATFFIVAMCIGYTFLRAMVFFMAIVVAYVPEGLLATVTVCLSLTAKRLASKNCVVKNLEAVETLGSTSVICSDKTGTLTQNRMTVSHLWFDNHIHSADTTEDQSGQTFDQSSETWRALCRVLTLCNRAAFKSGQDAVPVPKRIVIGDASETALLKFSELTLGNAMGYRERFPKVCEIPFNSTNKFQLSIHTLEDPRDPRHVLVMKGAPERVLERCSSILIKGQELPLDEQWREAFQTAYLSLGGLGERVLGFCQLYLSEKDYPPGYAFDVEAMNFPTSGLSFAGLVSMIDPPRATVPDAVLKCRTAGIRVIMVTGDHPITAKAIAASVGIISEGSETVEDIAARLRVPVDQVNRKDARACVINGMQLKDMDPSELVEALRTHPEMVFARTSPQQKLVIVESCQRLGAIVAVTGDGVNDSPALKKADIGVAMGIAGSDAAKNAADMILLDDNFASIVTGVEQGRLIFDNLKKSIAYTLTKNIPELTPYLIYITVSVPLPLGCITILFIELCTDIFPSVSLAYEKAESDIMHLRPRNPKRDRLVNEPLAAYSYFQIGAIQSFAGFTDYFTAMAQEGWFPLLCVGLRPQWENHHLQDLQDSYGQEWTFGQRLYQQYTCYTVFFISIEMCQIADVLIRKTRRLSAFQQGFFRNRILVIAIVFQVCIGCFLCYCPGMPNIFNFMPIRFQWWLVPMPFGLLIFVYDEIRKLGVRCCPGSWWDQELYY
T1 sequence (P18434 whole entry partner): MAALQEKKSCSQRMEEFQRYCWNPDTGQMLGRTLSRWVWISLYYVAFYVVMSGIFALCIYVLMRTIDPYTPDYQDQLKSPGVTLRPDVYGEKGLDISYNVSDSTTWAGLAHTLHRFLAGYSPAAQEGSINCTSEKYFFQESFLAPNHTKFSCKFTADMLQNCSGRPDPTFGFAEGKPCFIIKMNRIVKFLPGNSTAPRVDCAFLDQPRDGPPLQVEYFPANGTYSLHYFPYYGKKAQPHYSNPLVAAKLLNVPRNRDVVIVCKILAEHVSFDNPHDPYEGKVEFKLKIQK

**Q.** With CNCc1cn(S(=O)(=O)c2cccc(OC)c2)c2cc(Nc3ccc(C(F)(F)F)cc3Cl)ccc12 [Example 166, N-(2-chloro-4-(trifluoromethyl)phenyl)-1-((3-methoxyphenyl)sulfonyl)-3-((methylamino)methyl)-1H-indol-6-amine hydrochloride] as the compound, how does the IC50 read?
**A.** Its IC50 is 340 nM.

**Q.** With CNCc1cn(S(=O)(=O)c2cccc(OC)c2)c2cc(Nc3ccc(OC)cc3F)ccc12 [Example 167, N-(2-fluoro-4-methoxyphenyl)-1-((3-methoxyphenyl)sulfonyl)-3-((methylamino)methyl)-1H-indol-6-amine hydrochloride] as the compound, how does the IC50 read?
**A.** The IC50 was 610 nM.

**Q.** Which IC50 does the source give for CNCc1cn(S(=O)(=O)c2cccc(OC)c2)c2cc(Nc3ccc(OC(F)(F)F)cc3C)ccc12 [Example 168, 1-((3-methoxyphenyl)sulfonyl)-N-(2-methyl-4-(trifluoromethoxy)phenyl)-3-((methylamino)methyl)-1H-indol-6-amine hydrochloride] here?
**A.** Its IC50 is 790 nM.

**Q.** CNCc1cn(S(=O)(=O)c2cccc(OC)c2)c2cc(Nc3ccc(OC(F)(F)F)cc3Cl)ccc12 [Example 169, N-(2-chloro-4-(trifluoromethoxy)phenyl)-1-((3-methoxyphenyl)sulfonyl)-3-((methylamino)methyl)-1H-indol-6-amine hydrochloride] was tested. Which IC50 did it give?
**A.** The IC50 was 80 nM.

**Q.** CNCc1cn(S(=O)(=O)c2cccc(OC)c2)c2cc(Nc3ccc(C)c(F)c3F)ccc12 [Example 170, N-(2,3-difluoro-4-methylphenyl)-1-((3-methoxyphenyl)sulfonyl)-3-((methylamino)methyl)-1H-indol-6-amine hydrochloride] was tested. Which IC50 did it give?
**A.** The IC50 was 260 nM.

**Q.** Which IC50 does the source give for CNCc1cn(S(=O)(=O)c2cccc(OC)c2)c2cc(Nc3ccc(C)nc3F)ccc12 [Example 171, N-(2-fluoro-6-methylpyridin-3-yl)-1-((3-methoxyphenyl)sulfonyl)-3-((methylamino)methyl)-1H-indol-6-amine hydrochloride] here?
**A.** Its IC50 is 630 nM.

**Q.** For CNCc1cn(S(=O)(=O)c2cccc(OC)c2)c2cc(Nc3ccc(C)nc3Cl)ccc12 [Example 172, N-(2-chloro-6-methylpyridin-3-yl)-1-((3-methoxyphenyl)sulfonyl)-3-((methylamino)methyl)-1H-indol-6-amine hydrochloride], which IC50 is on record?
**A.** Its IC50 is 1500 nM.

**Q.** CNCc1cn(S(=O)(=O)c2cccc(OC)c2)c2cc(Nc3ccc(OC)nc3Cl)ccc12 [Example 173, N-(2-chloro-6-methoxypyridin-3-yl)-1-((3-methoxyphenyl)sulfonyl)-3-((methylamino)methyl)-1H-indol-6-amine hydrochloride] was tested. Which IC50 did it give?
**A.** The IC50 was 1190 nM.

**Q.** For CNCc1cn(S(=O)(=O)c2cccc(OC(F)F)c2)c2cc(Nc3ccc(C)cc3F)ccc12 [Example 174, 1-((3-(difluoromethoxy)phenyl)sulfonyl)-N-(2-fluoro-4-methylphenyl)-3-((methylamino)methyl)-1H-indol-6-amine hydrochloride], which IC50 is on record?
**A.** Its IC50 is 20 nM.

**Q.** CNCc1cn(S(=O)(=O)c2cccc(OC(F)F)c2)c2cc(Nc3ccc(C)cc3Cl)ccc12 [Example 175, N-(2-chloro-4-methylphenyl)-1-((3-(difluoromethoxy)phenyl)sulfonyl)-3-((methylamino)methyl)-1H-indol-6-amine hydrochloride] was tested. Which IC50 did it give?
**A.** Its IC50 is 150 nM.

**Q.** With CNCc1cn(S(=O)(=O)c2cccc(OC(F)F)c2)c2cc(Nc3ccc(Cl)cc3F)ccc12 [Example 176, N-(4-chloro-2-fluorophenyl)-1-((3-(difluoromethoxy)phenyl)sulfonyl)-3-((methylamino)methyl)-1H-indol-6-amine hydrochloride] as the compound, how does the IC50 read?
**A.** The IC50 was 370 nM.

**Q.** For CNCc1cn(S(=O)(=O)c2cccc(OC(F)F)c2)c2cc(Nc3ccc(Cl)cc3C(F)(F)F)ccc12 [Example 177, N-(4-chloro-2-(trifluoromethyl)phenyl)-1-((3-(difluoromethoxy)phenyl)sulfonyl)-3-((methylamino)methyl)-1H-indol-6-amine hydrochloride], which IC50 is on record?
**A.** The IC50 was 1410 nM.
